From US20230357354A1, “CD38-BINDING CD31 PEPTIDES AND USES THEREOF” (ENCEFA, priority 2020, published 2023)
Where two headings read alike, the source gives them in different places. Bridge positions count the residues as written; N and C are the ends. Ends that are not written are not given here. Peptide text beside a SMILES is read from it.

Tests used:
human Daudi cells [1] = type: cell-based
[2] = test system: dopaminergic (TH^+) neurons in midbrain cultures; experiment: MPP+ intoxication model: DA (TH+) cell survival in midbrain cultures; type: cell-based, Wistar rat; conditions: MPP^+ in vitro model; antibodies 1 µg/mL, genistein 10 nM, vacuolin-1 10 µM, endosidin2 40 µM
Description: Animals were treated in accordance with the Guide for the Care and Use of Laboratory Animals (National Research Council, 1996), European Directive 86/609, and the guidelines of the local institutional animal care and use committee. Cultures were prepared from the ventral mesencephalon of gestational age 15.5 Wistar rat embryos (Janvier Breeding Center, Le Genest St Isle, France). Dissociated cells in suspension obtained by mechanical trituration of midbrain tissue pieces were seeded at a density of 1.2-1.5×10^5 cells/cm^2 onto tissue culture supports precoated with 1 mg/mL polyethylenimine diluted in borate buffer pH 8.3 as described (Michel et al., 1997. J Neurochem. 69(4):1499-507). The cultures were then maintained in N5 medium supplemented with 5 mM glucose, 5 % horse serum, and 0.5 % fetal calf serum, except for the first 3 DIV, when the concentration of fetal calf serum was 2.5% to favor initial maturation of the cultures (Guerreiro et al., 2008. Mol Pharmacol. 74(4):980-9). They were fed daily by replacing 70% of the medium. Routinely, mesencephalic cultures were established on Nunc 24-well culture plates (Thermofischer Scientific, Rochester, NY). Note that these cultures contain tyrosine hydroxylase (TH)^+ neurons that were exclusively dopaminergic (Traver et al., 2006. Mol Pharmacol. 70(1):30-40). TH^+ neurons represented approximately 1-2% of the total number of neuronal cells present in these cultures. The evaluation of the survival of DA neurons was performed by counting cells immunopositive for TH as described (Toulorge et al., 2011. Faseb J. 25(8):2563-73).
Treatments with MPP^+ were performed in cultures where the spontaneous death process was prevented by long-term exposure to depolarizing concentrations of K^+ (30 mM), in the presence of the glutamate receptor antagonist MK801 (5 µM) to prevent unwanted excitotoxic insults as described previously (Douhou et al., 2001. J Neurochem. 78(1):163-74). Treatments with MPP^+ and potential neuroprotective molecules were carried out between 5 and 7 DIV.
The cultures were fixed for 12 min using 4 % formaldehyde in Dulbecco’s phosphate-buffered saline (PBS), then washed twice with PBS before an incubation step at 4° C. for 24 hours with the following antibodies. A monoclonal anti-TH antibody diluted 1/5000 (ImmunoStar, Inc., Hudson, WI) was used to assess the survival of DA neurons. Antibody was diluted in PBS containing 0.2 % Triton X-100. Detection of the primary antibodies was performed with an Alexa Fluor-488 conjugate of an anti-mouse IgG antibody.
For this purpose, spontaneously occurring DA cell death was prevented by a treatment combining depolarizing concentrations of K^+ (30 mM) and MK801 (5 µM), a glutamate receptor antagonist used to prevent unwanted excitotoxic insult. The cultures were then exposed to 3 µM MPP^+ between 5 and 7 days in vitro (DIV) to achieve a loss of approximately 50% of DA neurons.

6-OHDA mouse model = experiment: 6-OHDA mouse model, number of DA (TH+) neurons in the substantia nigra pars compacta; type: in vivo, mice; conditions: 15 mg/kg iv one day before 6-OHDA icv injection
Description: Animals were treated in accordance with the Guide for the Care and Use of Laboratory Animals (National Research Council, 1996), with the European Directive 2010/63/EU, and the guidelines of the local institutional animal care and use committee. For all studies, 8 to 10 weeks-old male C57B1/6 mice (Janvier, France) were used. They were maintained on a 12:12 hours light/dark cycle with lights on at 8 a.m. The room temperature was kept at 20° C., with free access to standard diet and tap water.
Two in vivo mouse models were used: the 6-OHDA mouse model and the MPTP mouse model. For the 6-OHDA mouse model, the intoxication protocol was based on the unilateral stereotaxic intrastriatal injection of 6-OHDA in the right striatum. Intracerebral or intravenous injections of treatments were made either the day before the surgical stereotaxic procedure, concomitantly with 6-OHDA during the surgical stereotaxic procedure, or two days after 6-OHDA injection. Animals were sacrificed 8 days after the surgical stereotaxic procedure.
For unilateral 6-OHDA mouse model, animals were anesthetized using Chloral hydrate (400 mg/kg, i.p.) and placed into a stereotactic frame adapted to mice. The injection was performed using a Hamilton syringe at the following coordinates: AP: + […] (corresponding to the atlas of Franklin and Paxinos, 1997). […]

DSS mouse model = experiment: DSS-induced colitis mouse model, colon length; type: in vivo, mice
Description: (§1) Experimental colitis was induced in mice by giving drinking water ad libitum containing 3 % (w/v) DSS for 5 days, while control mice received tap water only. Test compounds were intravenously administered (15 mg/kg) when DSS treatment began. Mice were sacrificed 9 days after the beginning of DSS treatment.
Administration of DSS causes human ulcerative colitis-like pathologies due to its toxicity to colonic epithelial cells, which results in compromised mucosal barrier function. Clinical observations similar to human pathologies, such as weight loss, diarrhea and occult blood in stool, are commonly observed in the DSS model. Moreover, diminution of the colon’s length is characteristic of this model.
as §1, with “3%” for “3 %”, “compounds (SEQ ID NO: 6 and SEQ ID NO: 10)” for “compounds”, “subcutaneously” for “intravenously”, “everyday (300 µg/kg) starting” for “(15 mg/kg)”

human Daudi cells [3] = type: cell-based; conditions: glucose-deprived cells, 1 hour treatment (1 µM per figure legends; 10 µg/mL per method), 2-NBDG 500 µM 30 minutes
Description: Human Daudi cells cultured in 75 cm^2 flask were centrifuged ( 300 g, 3 minutes), resuspended in warmed PBS supplemented with 10 % goat serum and seeded in 96-well microplate ( 100 µL, 2 × 10^6 cells/mL) in order to deprive cells from glucose. Cells were treated with test treatments (10 µg/mL) for 1 hour (37° C.). Cells were then incubated with 500 µM of the fluorescent and non-metabolizable glucose analog 2-NBDG ((2R,3R,4S,5R)-3,4,5,6-tetrahydroxy-2-[(7-nitro-2,1,3-benzoxadiazol-4-yl)amino]hexanal; Thermo Fischer) for 30 minutes at 37° C., and washed 4 times with PBS containing 10 % of goat serum. Images were acquired using a Zeiss microscope (20 X) and the relative fluorescence intensity of 30 cells was determined using Fiji.
To determine the effect of test compounds on glucose uptake, we developed a cellular model based on the use of human Daudi cells, a cell line known to strongly express CD38.
Human Daudi cells were plated in culture medium deprived of glucose and exposed to test treatments (peptides of Table 6) for 1 hour and then incubated with the non-metabolizable, fluorescent glucose 2-NBDG. After 30 minutes of incubation, cells were washed and imaged using a microscope. Fluorescence levels were determined using Fiji.

CC[C@H](C)[C@@H]1NC(=O)[C@H](C(C)C)NC(=O)[C@H](Cc2ccccc2)NC(=O)[C@H](CC(N)=O)NC(=O)[C@H](CCC(N)=O)NC(=O)[C@H](CC(=O)O)NC(=O)[C@H](CCCNC(=N)N)NC(=O)[C@@H](N)CSSC[C@@H](C(=O)O)NC(=O)[C@H](CCC(N)=O)NC(=O)[C@H](CCC(=O)O)NC(=O)[C@H](CCC(=O)O)NC(=O)[C@H](C(C)C)NC(=O)[C@@H]2CCCN2C(=O)[C@H](Cc2ccccc2)NC(=O)[C@H](CCC(=O)O)NC(=O)[C@H](CC(C)C)NC1=O [SEQ ID NO: 9] (H-CRDQNFVILEFPVEEQC-OH; disulfide 1-17 (inferred); N-terminus and C-terminus assumed)
EC50 (human Daudi cells [1]; 1 h): ~0.1 nM

COc1cc(/C=N/NC(=O)c2cccc(F)c2)cc(I)c1O [endosidin2]
effect on the neuroprotective effect of agonistic anti-CD38 antibody clone HB7 (1 µg/mL) [2]: antagonized | effect on the neuroprotective effect of sCD31 (1 µg/mL) [2]: antagonized

O=c1c(-c2ccc(O)cc2)coc2cc(O)cc(O)c12 [genistein]
effect on the neuroprotective effect of agonistic anti-CD38 antibody clone HB7 (1 µg/mL) [2]: antagonized | effect on the neuroprotective effect of sCD31 (1 µg/mL) [2]: antagonized

Ic1cccc(/C=N/Nc2nc(N3CCOCC3)nc(N(c3ccccc3)c3ccccc3)n2)c1 [vacuolin-1]
effect on the neuroprotective effect of agonistic anti-CD38 antibody clone HB7 (1 µg/mL) [2]: antagonized | effect on the neuroprotective effect of sCD31 (1 µg/mL) [2]: antagonized

Daratumumab
neuroprotective effect on DA neurons (6-OHDA mouse model): failed to demonstrate neuroprotective activity

NSRDQNFVILEFPVE [SEQ ID NO: 6]
colon length (DSS mouse model; 300 µg/kg s.c. daily from start of DSS, 3% DSS 5 days, sacrifice day 9): statistically significant improvement in colon length | potency on colon length compared with SEQ ID NO: 10 (DSS mouse model; same dosing regimen, 300 µg/kg s.c. daily): less potent than SEQ ID NO: 10 | EC50 (human Daudi cells [1]; 1 h): ~13 nM

NSVILEFP [SEQ ID NO: 308]
glucose uptake (2-NBDG fluorescence) (human Daudi cells [3]): keep glucose uptake-increasing activity

NWVILEFP [SEQ ID NO: 306]
glucose uptake (2-NBDG fluorescence) (human Daudi cells [3]): still increase glucose uptake

NYVILEFP [SEQ ID NO: 305]
glucose uptake (2-NBDG fluorescence) (human Daudi cells [3]): still increase glucose uptake

QFVILEFP [SEQ ID NO: 301]
glucose uptake (2-NBDG fluorescence) (human Daudi cells [3]): still increase glucose uptake

SFVILEFP [SEQ ID NO: 302]
glucose uptake (2-NBDG fluorescence) (human Daudi cells [3]): still increase glucose uptake, although to a lesser extent

TFVILEFP [SEQ ID NO: 303]
glucose uptake (2-NBDG fluorescence) (human Daudi cells [3]): still increase glucose uptake, although to a lesser extent

human sCD31: soluble form of human CD31, amino acid residues 35 to 493 of SEQ ID NO: 1
glucose uptake (2-NBDG fluorescence) (human Daudi cells [3]): increased glucose uptake to similar levels to that observed in the presence of insulin | EC50 (human Daudi cells [1]; dose response, 2-NBDG fluorescence, read-out: EC50 on glucose uptake): ~5 nM
